Reference: US8759311B2, “Use of siRNA targetting SIPA1L1 for the reduction of adipogenesis” (Sanofi, priority 2009, dated 2014)

How the values were obtained:
C57BL/6J mice = assay: high fat diet fed C57BL/6J mice treated with Rimonabant; format: in vivo, mouse; conditions: HFD mice, 10 mg.kg−1.day−1 for one month
Text: C57BL/6J mice, which are obesity-prone (Collins S. et al., 2004) were fed for 6 months with a high fat diet (HFD).

Sipa1l1 = assay: retroviral shRNA transduction of 3T3-L1 cells, Sipa1l1 mRNA by RT-PCR; format: cell-based, mouse; conditions: day 0 prior differentiation
Experimental: 3T3-L1 cells were cultured in DMEM (Gibco) with 10% FBS (Gibco) at 5% CO2. After retroviral infection (see below), cells were allow to grow to confluence in either 100-mm or 60-mm dishes in DMEM with 10% FBS. Once confluence was reached, cells were exposed to differentiation medium containing dexamethasone (1 μM), insulin (5 μg/ml), and isobutylmethylxanthine ([…]) (DMI). After 2 days cells were maintained in medium containing insulin (5 μg/ml) until ready for harvest at 7 days.
Retroviruses were constructed in the RNAi-Ready pSIREN-RetroQ ZsGreen (pSIREN Clontech) or pMSCV puromycin plasmid (pMSCV, Clontech). Viral constructs were transfected using calcium-phosphate method described in Jordan M. et al (2004) into 293 HEK packaging cells along with constructs encoding gag-pol and the VSV-G protein. Supernatants were harvested after 48 h in presence of 3 μm of Trichostatin A (Sigma) and either used immediately or snap frozen and stored at −80° C. for later use. Viral supernatants were added to the cells for 6 hours in the presence of polybrene (4 μg/ml) and diluted two times with fresh medium for the next 15 hours.
Total RNA was isolated from cultured cells using peqGOLD TriFast reagent according to the manufacturer's instructions (Axonlab). First strand cDNA was synthesized from 0.5 μg of total RNA using random primers and Superscript II (Invitrogen). […]

## Cc1c(C(=O)NN2CCCCC2)nn(-c2ccc(Cl)cc2Cl)c1-c1ccc(Cl)cc1 [Rimonabant]
C57BL/6J mice
  body weight: normalize
  glucose tolerance: normalized

B1: shLuc: control shRNA against the firefly luciferase protein (SEQ ID NO. 7) (nucleic acid)
chain: GATCCGTGCGTTGCTAGTACCAATTCAAGAGATTGGTACTAGCAACGCACTTTTTTACGCGTG
modifications: the letters are possibly those of the target site
Sipa1l1
  knockdown of Sipa1l1 mRNA: no inhibition
